# Source: PMC7944402, “Resin-acid derivatives bind to multiple sites on the voltage-sensor domain of the Shaker potassium channel” (The Journal of General Physiology, 2021)
# Where “and” joins values, the source holds several entries; their conditions need not be identical. Identical values can stand only once.
# Legend:
# [1] = test system: Shaker KV channel binding sites (S3/S4, S4/pore, residual); assay: Additive model of site contributions to the G(V) shift (least squares fit); parameters: species or system Drosophila melanogaster
# Source text: We also considered a reduced dataset of five mutants for Wu50 to make the comparison between the two compounds equitable (Table S1).
# The G(V) shift for each mutant was expressed as a sum of contribution from the various sites: ΔVmodel=ΔVS3/S4+ΔVS4/pore+ΔVResidual, (4) where ΔVS3/S4 is the G(V) shift due to compound binding to the S3/S4 site, ΔVS4/pore is the G(V) shift due to compound binding to the S4/pore site, and ΔVResidual is the G(V) shift due to compound binding to other sites, including the top-VSD site.
# Following the assumptions based on observations made using MD simulations, ΔVS3/S4 was set to 0 if the 2R motif was missing (i.e., in the WT channel), ΔVS4/pore could adopt one of four values depending on the type of mutation (R362/W454 = WT configuration, R362Q, W454A, or R362Q/W454A), and ΔVResidual was assumed to be the same for all mutants.
# The model further assumed that there is a residual effect that can be due to binding to the VSD-top site or to any other unidentified site and that the contributions due to binding to the S3/S4 site and the S4/pore site depend upon mutations at this site.
# [2] = molecular target: T1, Shaker KV channel M356R/A359R/R362Q (Drosophila melanogaster, UniProt P08510, A359R/DEL6-46/M356R/R362Q); assay: Two-electrode voltage clamp in Xenopus oocytes: 2R motif/R362Q; type: cell-based
# T1 construct: expressed in transfected cells; host or cells: Xenopus laevis oocytes (RNA injection)
# T1 sequence (P08510 other isoform, or with tags, fused parts or gaps DEL6-46/M356R/A359R/R362Q): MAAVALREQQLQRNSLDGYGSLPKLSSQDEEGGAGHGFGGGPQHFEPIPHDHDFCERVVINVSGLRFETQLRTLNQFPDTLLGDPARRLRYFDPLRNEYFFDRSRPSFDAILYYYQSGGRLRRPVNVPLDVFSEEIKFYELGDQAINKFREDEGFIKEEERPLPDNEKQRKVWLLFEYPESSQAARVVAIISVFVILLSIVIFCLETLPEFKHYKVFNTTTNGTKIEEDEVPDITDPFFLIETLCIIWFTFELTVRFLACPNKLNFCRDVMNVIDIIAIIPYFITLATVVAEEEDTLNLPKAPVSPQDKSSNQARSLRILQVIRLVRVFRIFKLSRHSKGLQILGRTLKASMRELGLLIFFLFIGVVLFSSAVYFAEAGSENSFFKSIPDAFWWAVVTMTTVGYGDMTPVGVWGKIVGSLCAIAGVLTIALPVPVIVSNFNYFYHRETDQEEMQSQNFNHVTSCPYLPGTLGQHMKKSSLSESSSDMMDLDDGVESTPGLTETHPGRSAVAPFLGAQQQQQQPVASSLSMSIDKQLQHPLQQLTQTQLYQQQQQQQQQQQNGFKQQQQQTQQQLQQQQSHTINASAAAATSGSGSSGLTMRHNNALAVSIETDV
# Source text: (§1) The Shaker H4 channel (GenBank accession no. NM_167595.3; [Kamb et al., 1987]), with removed N-type inactivation due to a Δ6-46 deletion (ShH4IR, in Bluescript II KS(+) plasmid; [Hoshi et al., 1990]), is referred to as the WT Shaker KV channel. Addition of two positively charged arginines (M356R/A359R) at the extracellular top of the voltage sensor increases the effect of charged lipophilic compounds ([Ottosson et al., 2014], [2015], [2017]). […] However, for the resin-acid derivatives studied in the present investigation, R362 reduced the effect. Therefore, we specifically refer to the two added arginines just outside S4 (M356R/A359R) as the 2R motif. Mutations were introduced with site-directed mutagenesis and verified with sequencing as described previously ([Börjesson et al., 2010]). RNA injection and oocyte handling were performed as before ([Börjesson et al., 2010]; [Ottosson et al., 2015]). All animal experiments were approved by the Linköping’s local Animal Care and Use Committee.
# (§2) Electrophysiological experiments were made 1–6 d after RNA injection. K^+ currents were measured with the two-electrode voltage-clamp technique (GeneClamp 500B amplifier; Axon Instruments) as described previously ([Ottosson et al., 2015]; [Silverå Ejneby et al., 2018]). The amplifier’s leak compensation was used, and the currents were low-pass filtered at 5 kHz. The control solution contained (in mM) 88 NaCl, 1 KCl, 15 HEPES, 0.4 CaCl2, and 0.8 MgCl2, and pH was set with NaOH. All experiments were made at room temperature (20°C–23°C). The holding potential was set to −80 mV (or −100 mV if the mutant was not fully closed at −80 mV).
# (§3) Stock solutions were stored at −20°C and diluted in control solution just before experiments. The test solution was added to the oocyte bath manually with a syringe. […] To make sure all Wu50 molecules were negatively charged, the pH of the control solution was set to 9.0 before the experiments. This pH change had only small effects on channel kinetics and the G(V) relation.
# (§4) The conductance, G(V), was calculated as G(V)=I/(V−VK), (1) where I is the steady-state current measured at the end of each test-voltage sweep (100 ms after onset; Clampfit 10.5; Molecular Devices), V is the absolute membrane voltage, and VK is the reversal potential for K^+ ions (set to −80 mV). […] The resin-acid–induced G(V) shift was calculated as V1/2 (compound) − V1/2 (control). The relative change in GMAX was calculated as GMAX (compound) / GMAX (control). The concentration dependence for the G(V) shifts was calculated as ΔV= ΔVMAX/(1 +EC50/c), (3) where ΔV is the voltage shift, ΔVMAX is the voltage shift at saturating concentration, c is the concentration of the tested compound, and EC50 is the concentration at which half-maximum response occurs.
# [3] = molecular target: T2, Shaker KV channel R362Q/R365Q (Drosophila melanogaster, UniProt P08510, DEL6-46/R362Q/R365Q); assay: Two-electrode voltage clamp in Xenopus oocytes: R362Q/R365Q; type: cell-based; conditions: 100 μM, pH 9.0, R362Q/R365Q
# T2 construct: expressed in transfected cells; host or cells: Xenopus laevis oocytes (RNA injection)
# T2 sequence (P08510 other isoform, or with tags, fused parts or gaps DEL6-46/R362Q/R365Q): as the sequence (P08510 other isoform, or with tags, fused parts or gaps DEL6-46/M356R/A359R/R362Q) above, with R315M, R318A, R324Q counted along it
# Source text: as §1
# (§5) Electrophysiological experiments were made 1–6 d after RNA injection. K^+ currents were measured with the two-electrode voltage-clamp technique (GeneClamp 500B amplifier; Axon Instruments) as described previously ([Ottosson et al., 2015]; [Silverå Ejneby et al., 2018]). […]
# as §4
# Shaker KV channel W454A = molecular target: T3, Shaker KV channel W454A (Drosophila melanogaster, UniProt P08510, DEL6-46/W454A); assay: Two-electrode voltage clamp in Xenopus oocytes: W454A; type: cell-based; conditions: 100 μM, pH 9.0, W454A
# T3 construct: expressed in transfected cells; host or cells: Xenopus laevis oocytes (RNA injection)
# T3 sequence (P08510 other isoform, or with tags, fused parts or gaps DEL6-46/W454A): as the sequence (P08510 other isoform, or with tags, fused parts or gaps DEL6-46/M356R/A359R/R362Q) above, with R315M, R318A, Q321R, W413A counted along it
# Source text: as §1, §5, §4
# [4] = molecular target: T4, Shaker KV channel M356R/A359R/W454A (Drosophila melanogaster, UniProt P08510, A359R/DEL6-46/M356R/W454A); assay: Two-electrode voltage clamp in Xenopus oocytes: 2R motif/W454A; type: cell-based
# T4 construct: expressed in transfected cells; host or cells: Xenopus laevis oocytes (RNA injection)
# T4 sequence (P08510 with tags, fused parts or gaps DEL6-46/M356R/A359R/W454A): as the sequence (P08510 other isoform, or with tags, fused parts or gaps DEL6-46/M356R/A359R/R362Q) above, with Q321R, W413A counted along it
# Source text: as §1, §2, §3, §4
# [5] = 100 μM, pH 9.0, M356R/A359R/R362Q
# [6] = 100 μM, pH 9.0, M356R/A359R/W454A
smiles,measurement,setting,value
C[C@@]1(C(=O)O)CCC[C@]2(C)c3cc(Cl)c(Cl)c(Cl)c3CC[C@@H]12 [Wu50],ΔVS3/S4 (contribution of the S3/S4 site in the presence of the 2R mutations),[1]; eight mutants,−17 mV
same,"ΔVS4/pore, R362Q configuration",[1]; eight mutants,−34 mV
same,"ΔVS4/pore, R362Q/W454A configuration",[1]; eight mutants,−31 mV
same,"ΔVS4/pore, WT S4/pore site",[1]; eight mutants,−15 mV
same,ΔVS3/S4 (contribution of the S3/S4 site in the presence of the 2R mutations),[1]; five mutants,−10 mV
same,"ΔVS4/pore, R362Q configuration",[1]; five mutants,−37 mV
same,"ΔVS4/pore, WT S4/pore site",[1]; five mutants,−18 mV
same,ΔVResidual (contribution of other sites to the G(V) shift),[1]; five mutants (Wu50 constrained to be the same as for eight mutants),−10 mV
same,"ΔVS4/pore, W454A configuration",[1]; no clear difference between five-mutants and eight-mutants datasets,+2 to −6 mV
same,"G(V) shift, representative recording (Fig. 4 B)","[2]; 100 µM, pH 9.0, 2R motif/R362Q",−59.0 mV
same,GMAX (rel.),[2]; [5],1.93 rel.
same,ΔVG(V) (G(V) shift),[2]; [5],−54.0 ± 2.3 mV and -54.0 mV
same,GMAX (rel.),[3],0.55 rel.
same,ΔVG(V) (G(V) shift),[3],−25.5 ± 4.6 mV and -25.5 mV
same,GMAX (rel.),Shaker KV channel W454A,0.56 rel.
same,ΔVG(V) (G(V) shift),Shaker KV channel W454A,−8.1 ± 0.4 mV and -8.1 mV
same,EC50,[4],27.9 ± 9.2 µM
same,GMAX (rel.),[4]; [6],1.28 rel.
same,ΔVG(V) (G(V) shift),[4]; [6],-39.6 mV
same,ΔVMAX (maximum G(V) shift),"[4]; 2R motif/W454A, pH 9.0, concentration-response",−62.3 ± 6.5 mV
